Results: ChEMBL document CHEMBL4806963, “Antagonistic peptides for frizzled-1 and frizzled-2” (2013)
Activity calls are given as the source filed them. The calls are words filed in the database; no cut-off is given here. Where a SMILES comes first, the peptide text is derived from it.

Key:
[1] = biological target: Frizzled-5 (Homo sapiens) (UniProt Q13467); test: Antagonist activity at Wnt3a-stimulaed frizzled-5 (unknown origin) expressed in human HEK293superTOP flash cells incubated for 24 hrs by luciferase reporter gene assay; assay type: functional, cell-based; settings: HEK293
Chain of Frizzled-5 (Homo sapiens) (Q13467 whole entry): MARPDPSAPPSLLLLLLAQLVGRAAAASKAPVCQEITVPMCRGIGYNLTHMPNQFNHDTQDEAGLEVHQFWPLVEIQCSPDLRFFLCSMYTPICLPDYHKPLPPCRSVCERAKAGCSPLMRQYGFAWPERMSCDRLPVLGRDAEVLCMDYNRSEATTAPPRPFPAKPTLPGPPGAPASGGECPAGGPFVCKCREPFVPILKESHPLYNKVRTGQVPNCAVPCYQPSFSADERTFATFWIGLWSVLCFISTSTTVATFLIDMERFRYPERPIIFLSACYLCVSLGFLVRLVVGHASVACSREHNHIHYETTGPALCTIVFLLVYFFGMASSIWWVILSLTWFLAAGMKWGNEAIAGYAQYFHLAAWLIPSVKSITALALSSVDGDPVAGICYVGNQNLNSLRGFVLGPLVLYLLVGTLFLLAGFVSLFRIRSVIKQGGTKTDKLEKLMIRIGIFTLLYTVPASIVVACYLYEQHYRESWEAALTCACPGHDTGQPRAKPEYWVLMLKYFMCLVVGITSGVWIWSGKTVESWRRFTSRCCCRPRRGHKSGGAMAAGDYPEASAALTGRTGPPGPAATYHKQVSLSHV

[2] = biological target: Frizzled-5 (Homo sapiens) (UniProt Q13467); test: Antagonist activity at Wnt3a-stimulaed human frizzled-5 expressed in human HEK293superTOP flash cells at 10 nM incubated for 24 hrs by luciferase reporter gene assay; assay type: functional, cell-based; settings: HEK293
[3] = biological target: Frizzled-1 (Rattus norvegicus) (UniProt Q08463); test: Antagonist activity at rat frizzled-1 expressed in rat C-FIT cells assessed as inhibition of Wnt5a-stimulated blockade of migration at 10 nM incubated for 48 hrs and measured for 24 hrs following the scratch by scratch wound healing assay; assay type: cell-based; settings: filed as antagonist, time 72.0 hrs
Chain of Frizzled-1 (Rattus norvegicus) (Q08463 whole entry): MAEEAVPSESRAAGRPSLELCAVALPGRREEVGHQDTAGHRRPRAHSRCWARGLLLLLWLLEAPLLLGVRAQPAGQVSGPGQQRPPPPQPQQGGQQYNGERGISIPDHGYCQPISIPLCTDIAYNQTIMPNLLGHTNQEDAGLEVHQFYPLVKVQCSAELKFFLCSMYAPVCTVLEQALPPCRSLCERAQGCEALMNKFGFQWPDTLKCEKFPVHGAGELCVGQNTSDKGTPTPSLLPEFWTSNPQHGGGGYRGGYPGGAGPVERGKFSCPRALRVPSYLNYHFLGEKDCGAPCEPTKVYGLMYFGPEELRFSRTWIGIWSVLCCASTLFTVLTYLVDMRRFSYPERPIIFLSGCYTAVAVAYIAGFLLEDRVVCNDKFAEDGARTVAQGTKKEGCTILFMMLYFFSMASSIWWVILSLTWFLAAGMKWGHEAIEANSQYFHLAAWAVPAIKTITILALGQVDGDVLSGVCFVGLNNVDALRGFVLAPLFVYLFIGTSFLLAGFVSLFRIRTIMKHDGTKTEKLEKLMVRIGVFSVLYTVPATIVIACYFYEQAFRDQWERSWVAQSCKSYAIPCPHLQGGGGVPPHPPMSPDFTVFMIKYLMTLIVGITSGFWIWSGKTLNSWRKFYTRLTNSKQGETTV

[4] = biological target: Frizzled-1 (Rattus norvegicus) (UniProt Q08463); test: Antagonist activity at Wnt3a-stimulated rat frizzled-1 expressed in CHO cells incubated for 24 hrs by luciferase reporter gene assay relative to control; assay type: cell-based; settings: filed as antagonist, concentration not given here
[5] = biological target: Frizzled-2 (Rattus norvegicus) (UniProt Q08464); test: Agonist activity at rat frizzled-2 expressed in African green monkey COS7 cells by luciferase reporter gene assay; assay type: cell-based
Chain of Frizzled-2 (Rattus norvegicus) (Q08464 29-570 limits assumed): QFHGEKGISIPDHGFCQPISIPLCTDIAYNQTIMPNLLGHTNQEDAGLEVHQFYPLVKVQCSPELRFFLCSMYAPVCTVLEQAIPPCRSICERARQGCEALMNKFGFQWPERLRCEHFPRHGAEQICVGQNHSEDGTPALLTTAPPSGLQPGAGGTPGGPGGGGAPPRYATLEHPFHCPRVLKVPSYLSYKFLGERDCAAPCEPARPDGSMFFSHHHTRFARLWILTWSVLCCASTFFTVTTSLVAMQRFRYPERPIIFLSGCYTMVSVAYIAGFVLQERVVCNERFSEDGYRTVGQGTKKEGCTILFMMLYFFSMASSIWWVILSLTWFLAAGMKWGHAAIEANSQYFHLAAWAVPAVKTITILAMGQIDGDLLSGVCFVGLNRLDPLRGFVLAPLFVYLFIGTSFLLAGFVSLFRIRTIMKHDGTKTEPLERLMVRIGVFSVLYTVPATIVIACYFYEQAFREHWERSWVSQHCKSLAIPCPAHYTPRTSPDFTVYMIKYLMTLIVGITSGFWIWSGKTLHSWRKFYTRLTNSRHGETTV

Mus musculus [6] = test: Cardioprotective activity against myocardial infarction Swiss mouse model assessed as increase in infarct area thickness in heart at 6 ug/kg/day, sc via osmotic pumps for 2 to 5 weeks by immunohistochemical staining analysis; assay type: functional, organism-based; settings: dose 6.0 µg/kg/day, time 2-5 weeks
[7] = biological target: Frizzled-1 (Rattus norvegicus) (UniProt Q08463); test: Antagonist activity at rat frizzled-1 expressed in rat C-FIT cells assessed as inhibition of Wnt3a-stimulated blockade of migration at 10 nM incubated for 48 hrs and measured for 24 hrs following the scratch by scratch wound healing assay; assay type: cell-based; settings: filed as antagonist, time 72.0 hrs
Mus musculus [8] = test: Cardioprotective activity against myocardial infarction Swiss mouse model assessed as ventricular dilation at 6 ug/kg/day, sc via osmotic pumps for 5 weeks by macroscopic analysis; assay type: functional, organism-based; settings: dose 6.0 µg/kg/day
[9] = biological target: T1, Frizzled-4 (Homo sapiens) (UniProt Q9ULV1); test: Antagonist activity at Wnt3a-stimulaed frizzled-4 (unknown origin) expressed in human HEK293superTOP flash cells incubated for 24 hrs by luciferase reporter gene assay; assay type: functional, cell-based; settings: HEK293
T1 sequence (whole entry): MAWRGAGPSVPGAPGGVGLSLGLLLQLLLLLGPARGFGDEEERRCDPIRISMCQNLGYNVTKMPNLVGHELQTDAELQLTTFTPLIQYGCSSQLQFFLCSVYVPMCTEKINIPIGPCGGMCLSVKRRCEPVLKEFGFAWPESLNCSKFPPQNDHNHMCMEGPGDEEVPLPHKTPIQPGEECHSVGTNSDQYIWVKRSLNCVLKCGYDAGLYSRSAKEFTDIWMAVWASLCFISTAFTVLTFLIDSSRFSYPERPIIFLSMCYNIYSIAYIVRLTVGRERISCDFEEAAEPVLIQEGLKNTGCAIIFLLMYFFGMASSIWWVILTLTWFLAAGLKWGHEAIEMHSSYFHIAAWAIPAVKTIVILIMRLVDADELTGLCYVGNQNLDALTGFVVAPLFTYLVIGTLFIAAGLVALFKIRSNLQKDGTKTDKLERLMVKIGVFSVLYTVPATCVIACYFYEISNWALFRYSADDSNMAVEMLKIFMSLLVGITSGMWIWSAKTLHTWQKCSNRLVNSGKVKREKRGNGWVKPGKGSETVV

[10] = biological target: Frizzled-2 (Homo sapiens) (UniProt Q14332); test: Antagonist activity at Wnt3a-stimulaed human frizzled-2 expressed in human HEK293superTOP flash cells incubated for 24 hrs by luciferase reporter gene assay; assay type: functional, cell-based; settings: HEK293, filed as antagonist
Chain of Frizzled-2 (Homo sapiens) (Q14332 24-565 limits assumed): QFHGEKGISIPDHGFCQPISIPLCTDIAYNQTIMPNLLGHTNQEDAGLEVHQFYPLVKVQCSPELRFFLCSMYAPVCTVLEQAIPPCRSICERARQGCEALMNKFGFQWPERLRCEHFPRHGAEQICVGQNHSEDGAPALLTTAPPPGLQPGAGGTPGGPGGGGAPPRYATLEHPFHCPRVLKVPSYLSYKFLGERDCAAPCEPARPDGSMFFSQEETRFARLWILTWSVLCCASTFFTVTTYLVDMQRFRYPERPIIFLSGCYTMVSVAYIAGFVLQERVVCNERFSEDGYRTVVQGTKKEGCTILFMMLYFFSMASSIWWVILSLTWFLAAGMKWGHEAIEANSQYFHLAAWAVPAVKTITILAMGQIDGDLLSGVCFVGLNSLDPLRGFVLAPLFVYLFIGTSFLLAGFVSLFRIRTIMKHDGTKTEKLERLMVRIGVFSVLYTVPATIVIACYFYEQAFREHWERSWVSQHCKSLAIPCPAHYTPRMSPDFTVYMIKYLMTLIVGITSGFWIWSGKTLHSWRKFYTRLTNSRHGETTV

[11] = biological target: Frizzled-1 (Homo sapiens) (UniProt Q9UP38); test: Antagonist activity at frizzled-1 (unknown origin) expressed in rat C-FIT cells assessed as inhibition of Wnt3a-stimulated blockade of migration at 10 nM incubated for 48 hrs and measured for 24 hrs following the scratch by scratch wound healing assay; assay type: functional, cell-based; settings: filed as antagonist, time 72.0 hrs
Chain of Frizzled-1 (Homo sapiens) (Q9UP38 70-647 limits assumed): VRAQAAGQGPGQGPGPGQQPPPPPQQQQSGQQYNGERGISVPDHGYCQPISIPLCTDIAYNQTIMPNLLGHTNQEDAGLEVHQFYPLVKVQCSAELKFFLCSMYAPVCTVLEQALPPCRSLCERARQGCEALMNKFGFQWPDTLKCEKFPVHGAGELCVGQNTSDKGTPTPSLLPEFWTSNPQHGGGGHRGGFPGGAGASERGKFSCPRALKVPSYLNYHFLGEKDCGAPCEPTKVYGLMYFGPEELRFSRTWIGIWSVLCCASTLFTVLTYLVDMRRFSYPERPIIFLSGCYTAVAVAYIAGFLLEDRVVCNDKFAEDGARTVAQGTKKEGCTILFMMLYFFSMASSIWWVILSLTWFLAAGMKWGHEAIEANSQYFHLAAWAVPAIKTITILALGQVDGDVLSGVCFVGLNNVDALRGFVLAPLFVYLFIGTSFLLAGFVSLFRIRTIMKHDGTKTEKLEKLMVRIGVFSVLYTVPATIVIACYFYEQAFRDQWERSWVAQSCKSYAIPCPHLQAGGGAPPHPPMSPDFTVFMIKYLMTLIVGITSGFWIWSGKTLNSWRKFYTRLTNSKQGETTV

[12] = biological target: T1, Frizzled-4 (Homo sapiens); test: Antagonist activity at Wnt3a-stimulaed human frizzled-4 expressed in human HEK293superTOP flash cells at 10 nM incubated for 24 hrs by luciferase reporter gene assay; assay type: functional, cell-based; settings: HEK293
[13] = biological target: Frizzled-2 (Homo sapiens) (UniProt Q14332); test: Antagonist activity at frizzled-2 (unknown origin) expressed in rat C-FIT cells assessed as inhibition of Wnt3a-stimulated blockade of migration at 10 nM incubated for 48 hrs and measured for 24 hrs following the scratch by scratch wound healing assay; assay type: functional, cell-based; settings: filed as antagonist, time 72.0 hrs
[14] = biological target: Frizzled-1 (Mus musculus) (UniProt O70421); test: Antagonist activity at Wnt3a-stimulaed mouse frizzled-1 expressed in human HEK293superTOP flash cells incubated for 24 hrs by luciferase reporter gene assay; assay type: cell-based; settings: HEK293, filed as antagonist
Chain of Frizzled-1 (Mus musculus) (O70421 whole entry, looked up): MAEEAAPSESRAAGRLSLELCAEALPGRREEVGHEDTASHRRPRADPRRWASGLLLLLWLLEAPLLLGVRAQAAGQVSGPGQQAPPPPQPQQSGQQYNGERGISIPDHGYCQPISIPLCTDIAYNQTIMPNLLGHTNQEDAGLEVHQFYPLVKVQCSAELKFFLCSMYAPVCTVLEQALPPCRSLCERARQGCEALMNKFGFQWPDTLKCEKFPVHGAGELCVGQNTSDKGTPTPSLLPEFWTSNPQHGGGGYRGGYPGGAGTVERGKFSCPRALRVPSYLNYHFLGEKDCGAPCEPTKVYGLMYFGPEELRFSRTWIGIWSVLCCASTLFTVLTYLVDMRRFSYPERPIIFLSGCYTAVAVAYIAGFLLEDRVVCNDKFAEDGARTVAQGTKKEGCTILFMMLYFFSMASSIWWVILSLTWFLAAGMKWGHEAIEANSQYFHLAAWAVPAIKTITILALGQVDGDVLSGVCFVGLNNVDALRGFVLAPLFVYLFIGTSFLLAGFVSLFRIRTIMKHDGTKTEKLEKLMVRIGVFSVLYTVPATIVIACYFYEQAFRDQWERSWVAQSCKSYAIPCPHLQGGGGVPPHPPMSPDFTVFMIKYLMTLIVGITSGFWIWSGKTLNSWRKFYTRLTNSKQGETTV

Mus musculus [15] = test: Cardioprotective activity against myocardial infarction Swiss mouse model assessed as reduction in wet lung weight at 6 ug/kg/day, sc via osmotic pumps for 5 weeks; assay type: functional, organism-based; settings: dose 6.0 µg/kg/day
[16] = biological target: Frizzled-1 (Rattus norvegicus) (UniProt Q08463); test: Antagonist activity at Wnt3a-stimulated rat frizzled-1 expressed in African green monkey COS7 cells incubated for 24 hrs by luciferase reporter gene assay relative to control; assay type: cell-based; settings: filed as antagonist, concentration not given here
[17] = biological target: Frizzled-2 (Rattus norvegicus) (UniProt Q08464); test: Agonist activity at rat frizzled-2 expressed in human HEK293superTOP flash cells by luciferase reporter gene assay; assay type: cell-based; settings: HEK293
[18] = biological target: Frizzled-1 (Homo sapiens) (UniProt Q9UP38); test: Antagonist activity at Wnt3a-stimulaed human frizzled-1 expressed in human HEK293superTOP flash cells incubated for 24 hrs by luciferase reporter gene assay; assay type: functional, cell-based; settings: HEK293, filed as antagonist
Mus musculus [19] = test: Cardioprotective activity against myocardial infarction Swiss mouse model assessed as increase in amount of blood vessels in heart at 6 ug/kg/day, sc via osmotic pumps for 5 weeks by immunohistochemical staining analysis; assay type: functional, organism-based; settings: dose 6.0 µg/kg/day
[20] = biological target: Frizzled-2 (Homo sapiens) (UniProt Q14332); test: Antagonist activity at frizzled-2 (unknown origin) expressed in rat C-FIT cells assessed as inhibition of Wnt3a-stimulated cell differentiation changes by measuring alpha-smooth muscle actin gene expression at 10 nM by quantitative RT-PCR analysis; assay type: functional, cell-based; settings: filed as antagonist
[21] = biological target: Frizzled-1 (Homo sapiens) (UniProt Q9UP38); test: Antagonist activity at Wnt3a-stimulaed frizzled-1 (unknown origin) expressed in human HEK293superTOP flash cells at 1 nM incubated for 24 hrs by luciferase reporter gene assay (reference value: 0%); assay type: functional, cell-based; settings: HEK293, filed as antagonist
[22] = biological target: Frizzled-1 (Rattus norvegicus) (UniProt Q08463); test: Agonist activity at rat frizzled-1 expressed in CHO cells by luciferase reporter gene assay; assay type: cell-based
Mus musculus [23] = test: Cardioprotective activity against myocardial infarction Swiss mouse model assessed as reduction in infarction expansion in heart at 6 ug/kg/day, sc via osmotic pumps for 5 weeks by macroscopic analysis; assay type: functional, organism-based; settings: dose 6.0 µg/kg/day
[24] = biological target: Frizzled-2 (Homo sapiens) (UniProt Q14332); test: Antagonist activity at frizzled-2 (unknown origin) expressed in rat C-FIT cells assessed as inhibition of Wnt5a-stimulated cell differentiation changes by measuring alpha-smooth muscle actin gene expression at 10 nM by quantitative RT-PCR analysis; assay type: functional, cell-based; settings: filed as antagonist
[25] = biological target: Frizzled-2 (Rattus norvegicus) (UniProt Q08464); test: Agonist activity at rat frizzled-2 expressed in CHO cells by luciferase reporter gene assay; assay type: cell-based
Rattus norvegicus = species on record: Rattus norvegicus; test: Selectivity index, ratio of IC50 for Wnt3a-stimulated rat frizzled-1 expressed in human HEK293superTOPFlash cells to IC50 for Wnt3a-stimulated rat frizzled-2 expressed in human HEK293superTOPFlash cells; assay type: cell-based
Mus musculus [26] = test: Cardioprotective activity against myocardial infarction Swiss mouse model assessed as reduction in infarct area in heart at 6 ug/kg/day, sc via osmotic pumps for 2 to 5 weeks by immunohistochemical staining analysis; assay type: functional, organism-based; settings: dose 6.0 µg/kg/day, time 2-5 weeks
[27] = biological target: Frizzled-2 (Homo sapiens) (UniProt Q14332); test: Antagonist activity at frizzled-2 (unknown origin) expressed in human HEK293superTOP flash cells incubated for 24 hrs by luciferase reporter gene assay; assay type: functional, cell-based; settings: HEK293
[28] = biological target: Frizzled-1 (Rattus norvegicus) (UniProt Q08463); test: Agonist activity at rat frizzled-1 expressed in African green monkey COS7 cells by luciferase reporter gene assay; assay type: cell-based

Question: With CSCC[C@H](NC(=O)CNC(=O)[C@H](CCC(=O)O)NC(=O)[C@H](CO)NC(=O)[C@@H](NC(=O)[C@H](CCCCN)NC(=O)[C@H](CC(N)=O)NC(=O)[C@H](CS)NC(C)=O)[C@@H](C)O)C(=O)N[C@@H](CC(=O)O)C(=O)NCC(=O)N[C@@H](CS)C(=O)N[C@@H](CCC(=O)O)C(=O)N[C@@H](CC(C)C)C(N)=O (Ac-CNKTSEGMDGCEL-NH2) as the compound, how does the inhibition [1] read?
Answer: inactive

Question: And the inhibition [2]?
Answer: inactive

Question: What about the inhibition [3] of the same compound?
Answer: 100%

Question: What about the inhibition [4] of the same compound?
Answer: 100%

Question: And the Activity [5]?
Answer: inactive

Question: And the Activity (Mus musculus [6])?
Answer: Active

Question: What about the inhibition [7] of the same compound?
Answer: 100%

Question: And the Activity (Mus musculus [8])?
Answer: Active

Question: And the inhibition [9]?
Answer: inactive

Question: And the inhibition [10]?
Answer: Active

Question: And the inhibition [11]?
Answer: 100%

Question: What about the inhibition [12] of the same compound?
Answer: inactive

Question: And the inhibition [13]?
Answer: 100%

Question: What about the inhibition [14] of the same compound?
Answer: Active

Question: What about the Activity (Mus musculus [15]) of the same compound?
Answer: Active

Question: What about the inhibition [16] of the same compound?
Answer: 100%

Question: What about the Activity [17] of the same compound?
Answer: inactive

Question: And the inhibition [18]?
Answer: Active

Question: What about the Activity (Mus musculus [19]) of the same compound?
Answer: Active

Question: And the inhibition [20]?
Answer: 100%

Question: And the inhibition [21]?
Answer: 18%

Question: And the Activity [22]?
Answer: inactive

Question: What about the Activity (Mus musculus [23]) of the same compound?
Answer: Active

Question: What about the inhibition [24] of the same compound?
Answer: 100%

Question: And the Activity [25]?
Answer: inactive

Question: And the Ratio IC50 (Rattus norvegicus)?
Answer: 100

Question: What about the Activity (Mus musculus [26]) of the same compound?
Answer: Active

Question: And the inhibition [27]?
Answer: inactive

Question: What about the Activity [28] of the same compound?
Answer: inactive
